From patent US5905089A, “Use of sesquiterpene lactones for treatment of severe inflammatory disorders” (Board of Supervisors of Louisiana State University and …, priority 1998, dated 1999)
Entries after “also recorded” stand apart in the source; their conditions may differ.

Key:
TNFα mRNA = assay: Steady state levels of TNFα mRNA in LPS-stimulated alveolar macrophages (RNase protection assay); type: cell-based, Rat (Sprague-Dawley); conditions: FIG. 3B (2h) and FIG. 4 (parthenolide 1 μg/ml, time course)
Experimental: (§1) Rat (Sprague-Dawley) alveolar macrophages were collected by broncho-alveolar lavage as described by Lee et al., J. Biol. Chem., vol. 267, pp. 25934-25938 (1992). The murine macrophage cell line RAW 264.7 (ATCC no. TIB-71) was cultured in Dubecco's modified Eagle's medium (DMEM) containing 10% heat-inactivated fetal bovine serum (FBS, Intergen). For the cyclooxygenase activity assay, cells were seeded in 24 well plates, and after near-confluency, cells were treated with aspirin (250 μM) for 2.5h to inactivate endogenous cyclooxygenase. […] COX activity was determined by measuring prostaglandin E2 concentrations in cells incubated with arachidonic acid (30 μM) for 10 minutes as described in Lee et al. (1992).
(§2) Total cellular RNA was isolated by TRIzoL reagent (Gibco, BRL). The RNase protection assay was performed as described in Chanmugan et al. (1995).
(§3) In FIG. 3B, alveolar macrophages were incubated with LPS in the presence of various concentrations of parthenolide for 2h. Steady state levels of mRNA were determined by RNase protection assay. In FIG. 4, alveolar macrophages were incubated with LPS in presence of 1 μg/ml of parthenolide for specified time periods. The concentrations of mRNA were determined by RNase protection assay.

[1] = system: c-Jun N-terminal kinase-1 (JNK-1); assay: Tyrosine phosphorylation of JNK-1 in RAW 264.7 cells (electrophoretic mobility shift immunoblot); type: cell-based, murine; conditions: 3h pretreatment, LPS 1 μg/ml 30 min; FIG. 5B
Experimental: as §1
(§4) The protein levels of COX-2 and GAPDH were assessed by Western blot analysis using polyclonal antibodies as described in Lee et al. (1992). Polyclonal antibodies for IL-1α and JNK-1 were purchased from Genzyme and Santa Cruz Biotech, respectively.
(§5) Parthenolide suppressed LPS-stimulated tyrosine phosphorylation of various proteins in RAW 264.7 cells as assessed by antiphosphotyrosine immunoblot, depicted in FIG. 5A. This inhibition was correlated with the suppressed expression of COX-2 and IL-1α. […] Therefore, the extent of tyrosine phosphorylation of JNK-1 was assessed by the electrophoretic mobility shift of phosphorylated JNK-1 as shown in FIG. 5B. […]

P38 = assay: Tyrosine phosphorylation of P38 in RAW 264.7 cells (antiphosphotyrosine immunoblot); type: cell-based, murine; conditions: 3h pretreatment, LPS 1 μg/ml 30 min; FIG. 5A
Experimental: as §1
(§6) This detection technique was carried out essentially as described in Chanmugan et al. (1995) using 4G10 monoclonal antiphosphotyrosine antibody (UBI) and the ECL detection system (Amersham).
as §5

IL-1β mRNA = assay: Steady state levels of IL-1β mRNA in LPS-stimulated alveolar macrophages (RNase protection assay); type: cell-based, Rat (Sprague-Dawley); conditions: FIG. 3B (2h) and FIG. 4 (parthenolide 1 μg/ml, time course)
Experimental: as §1, §2, §3

COX-2 [2] = assay: Inhibition of the expression of COX-2 in LPS-stimulated macrophages (Table 1); type: cell-based
Experimental: Rat (Sprague-Dawley) alveolar macrophages were collected by broncho-alveolar lavage as described by Lee et al., J. Biol. Chem., vol.
(§7) Alveolar macrophages pretreated with aspirin were incubated with LPS (10 μg/ml) and various concentrations of parthenolide for 16h. The activity of de novo synthesized COX-2 was determined by measuring the levels of PGE2 produced from exogenous arachidonic acid. Activity of TNFα was determined by bioassay using L929 cells as described by Aggarwal et al., J. Biol. Chem., vol. […] Values in FIG. 2 are the means of triplicate samples for TNFα and duplicate samples for PGE2.

ERK-1 = assay: Tyrosine phosphorylation of ERK-1 in RAW 264.7 cells (antiphosphotyrosine immunoblot); type: cell-based, murine; conditions: 3h pretreatment, LPS 1 μg/ml 30 min; FIG. 5A
Experimental: as §1, §6, §5

COX-2 [3] = assay: COX-2 expression in LPS-stimulated RAW 264.7 cells (Western blot); type: cell-based, murine; conditions: LPS 1 μg/ml; FIG. 5D
Experimental: as §1, §4
Parthenolide suppressed LPS-stimulated tyrosine phosphorylation of various proteins in RAW 264.7 cells as assessed by antiphosphotyrosine immunoblot, depicted in FIG. 5A. This inhibition was correlated with the suppressed expression of COX-2 and IL-1α. RAW 264.7 cells were pretreated with parthenolide in various concentrations or with herbimycin A (0.5 μg/ml) for 3h, and then stimulated with LPS (1 μg/ml) in the presence of the inhibitors for 30 min. […] Therefore, the extent of tyrosine phosphorylation of JNK-1 was assessed by the electrophoretic mobility shift of phosphorylated JNK-1 as shown in FIG. 5B. Parthenolide inhibited tyrosine phosphorylation of JNK-1. Another protein tyrosine kinase inhibitor, herbimycin A ([…]), inhibited tyrosine phosphorylation of the MAPK subfamily.
The mechanism by which parthenolide inhibits protein tyrosine phosphorylation is not currently known. It has been speculated that the tyrosine kinase inhibitor herbimycin A inactivates p60^v-src kinase by irreversibly binding to the sulphydryl (SH) groups of p60^v-src kinase. Y. Uehara et al., Biochem. Biophys. Res. Commun., vol. 163, pp. 803-809 (1989). The inactivation by herbimycin may occur through conjugation between highly polarized double bonds in the benzoquinone moiety of herbimycin A and the SH group of sulphydryl compounds. Without wishing to be bound by this theory, the α-methylenebutyrolactone in parthenolide may interact with biological nucleophiles such as sulphydryl groups. Indeed, pretreating cells with sulphydryl compounds abrogated the inhibitory effect of parthenolide on LPS-induced activation of MAPKs as shown in FIG. 6A. […]

ERK-2 = assay: Kinase activity of ERK-2 in RAW 264.7 cells (in-gel kinase assay, MBP substrate); type: cell-based, murine; conditions: 3h pretreatment, LPS 1 μg/ml 30 min; FIG. 5
Experimental: as §1
This assay was performed according to the method described by Kameshita et al., Anal. Biochem., vol. 183, pp. 139-143 (1989) using myelin basic protein (MBP) as a substrate.
as §5

COX-2 mRNA = assay: Steady state levels of COX-2 mRNA in LPS-stimulated alveolar macrophages (RNase protection assay); type: cell-based, Rat (Sprague-Dawley); conditions: 2h, FIG. 3B
Experimental: as §1, §2, §3

COX-2 [4] = assay: COX activity of de novo synthesized COX-2 (PGE2) in LPS-stimulated, aspirin-pretreated alveolar macrophages; type: cell-based, Rat (Sprague-Dawley); conditions: LPS 10 μg/ml, 16h; PGE2 from exogenous arachidonic acid; FIG. 2; read-out: IC50, inhibition of the expression of COX activity
Experimental: as §1
as §7, with “Recovered COX activity in cells pretreated with aspirin reflected de novo synthesized COX-2. Alveolar” for “Alveolar”, “vol. 260, pp. 2345-2354 (1985).” for “vol.”

[5] = system: tyrosine phosphorylation of various proteins; assay: LPS-stimulated tyrosine phosphorylation of various proteins in RAW 264.7 cells (antiphosphotyrosine immunoblot); type: cell-based, murine; conditions: 3h pretreatment, LPS 1 μg/ml 30 min; FIG. 5A
Experimental: as §1, §6, §5

C=C1C(=O)O[C@H]2[C@H]1CC/C(C)=C/CC[C@@]1(C)O[C@@H]21 [Compound 1, Parthenolide]
steady state levels of mRNA for TNFα (TNFα mRNA): inhibited
tyrosine phosphorylation of JNK-1 [1]: inhibited
tyrosine phosphorylation of P38 (P38): inhibited by parthenolide in a dose-dependent manner
steady state levels of mRNA for IL-1β (IL-1β mRNA): inhibited
IC50, inhibiting the expression of COX-2 (COX-2 [2]; IC50 determined at multiple dose levels): 0.2 µg/mL
inhibitory activity (COX-2 expression), in words (COX-2 [2]; comparison among tested compounds): highest inhibitory activity
tyrosine phosphorylation of ERK-1 (ERK-1): inhibited by parthenolide in a dose-dependent manner
expression of COX-2 in RAW 264.7 cells (COX-2 [3]): suppressed
kinase activity of ERK-2 (ERK-2): dose-dependent inhibition
steady state levels of COX-2 mRNA (COX-2 mRNA): dose-dependent inhibition; also recorded: suppression
IC50 (COX-2 [4]): ~800 nM
LPS-stimulated tyrosine phosphorylation of various proteins [5]: suppressed
